Columns and labels:
SARS-CoV-2 = experiment: Anti-SARS-CoV-2 activity (FIG. 6); assay type: cell-based
[1] = tested on: LPS-induced nitrite in RAW 264.7 cells; experiment: LPS-induced nitrite production in RAW 264.7 cells (Griess reagent / fluorometric kit); assay type: cell-based, mouse; conditions: LPS-challenged RAW 264.7 cells, percentage of vehicle control value (control = 100%), mean ± S.E.M., n = 3
Procedure: Nitrite ion detection in drug treated […] cell culture media: To measure the levels of nitrite ion NO2—) the Griess Reagent System (Promega, Madison, WI, Cat #G2930) was utilized. The protocol followed was that recommended by the manufacturer. In brief a NO2— ion standard curve was prepared in culture media of the same composition to that used for the cell culture study. The concentration range of the standard curve was from 1.5 µM to 100 µM. Equal volumes (50 μL) of standards and unknown samples were added to clear 96 well plates in duplicate. Then 50 μL of sulfanilamide solution was added to each well and the plate was covered and incubated in the dark for 10 min. After the incubation period 50 μL of N-1-napthylethylenediamine dihydrochloride solution was added to each well and the plate was incubated in dark for a further 10 min. After this incubation, the plate was read at 550 nm on a SPECTRAmax PLUS plate reader and the absorbances were used to generate a NO2— standard curve and the NO2— ion levels of the unknown samples are determined using SoftMax Pro V5, Molecular Devices.
Most neurons are highly vulnerable to RNS and ROS. Nitric oxide (NO) is one of RNSs, which is very short lived and cannot be readily measured. However, nitrite is a stable end product of nitric oxide metabolism. Therefore, nitrite acts as a surrogate measure of NO. The Griess Reagent System (Promega Corporation, Madison, WI) can be applied to measure nitrite levels in culture media following the manufacturer's protocol, and this system was used in the present study as it is a more sensitive assay compared to quantifying actions on TNF-α by ELISA assay. […] This challenge induces high level of TNF-α protein accompanied by a robust generation of nitrite.
(§1) Cells were propagated as described by ATCC guidelines.

[2] = Cytotoxicity in the anti-SARS-CoV-2 evaluation (FIG. 6); assay type: cell-based; conditions: 25 μM
RAW 264.7 cells = experiment: Cell viability of drug treated RAW 264.7 cells (CellTiter 96 AQueous One, MTS); conditions: RAW 264.7 cells, percentage of vehicle control value, mean ± S.E.M., n = 3
TNF-α = experiment: LPS-induced TNF-α production in RAW 264.7 cells (ELISA); assay type: cell-based, mouse; conditions: LPS-challenged RAW 264.7 cells, percentage of vehicle control value (control = 100%), mean ± S.E.M., n = 3
Procedure: Enzyme-linked immunosorbent assay for TNF-α protein: Media TNF-α levels were measured by use of the Biolegend ELISA MAX Set Delux ELISA (#430904). The protocol used was that recommended by the manufacturer. In brief, a day prior to performing the assay, a 96 well plate was coated with a capture antibody directed against TNF-α. The following day the assay plate was washed and blocked with the kit blocking agent for 1 h while being mixed on a plate shaker at 200 rpm (all incubations were mixed at 200 rpm unless stated otherwise). A TNF-α protein standard curve was prepared in the assay diluent following the kit instructions and unknown media samples were likewise diluted in the same assay diluent. After blocking, the plate was washed and then both the standards and unknown media samples were added to the plate in duplicate. The standards and unknown samples were incubated for 2 h. After the incubation, the plate was washed and then the biotin labeled detection antibody was added to each well and incubated for a further 1 h. After this incubation, the avidin-HRP conjugate complex was added to each well and incubated for 30 min. The plate was washed and the chromogenic substrate 3,3′,5,5′-tetramethylbenzidine solution was added to each well. At this point the plate was covered and incubated in the dark for 15 min, with no mixing. After 15 min the chromogenic reaction was stopped by the addition of 2 N H2SO4 and the absorbance was read at 450 nm and for background subtractions at 570 nm, on a SPECTRAmax PLUS plate reader. The absorbances were used to generate a TNF-α a protein standard curve and the protein levels in the unknown samples were determined using SoftMax Pro V5, Molecular Devices.
as §1

[3] = target: cereblon (CRBN/DDB1-CUL4A-Rbx1 complex) / BRD3 (Homo sapiens (Human), UniProt Q96SW2); experiment: Cereblon/BRD3 binding assay (AlphaScreen / FRET)
Chain of cereblon (CRBN/DDB1-CUL4A-Rbx1 complex) / BRD3 (Q96SW2 whole entry): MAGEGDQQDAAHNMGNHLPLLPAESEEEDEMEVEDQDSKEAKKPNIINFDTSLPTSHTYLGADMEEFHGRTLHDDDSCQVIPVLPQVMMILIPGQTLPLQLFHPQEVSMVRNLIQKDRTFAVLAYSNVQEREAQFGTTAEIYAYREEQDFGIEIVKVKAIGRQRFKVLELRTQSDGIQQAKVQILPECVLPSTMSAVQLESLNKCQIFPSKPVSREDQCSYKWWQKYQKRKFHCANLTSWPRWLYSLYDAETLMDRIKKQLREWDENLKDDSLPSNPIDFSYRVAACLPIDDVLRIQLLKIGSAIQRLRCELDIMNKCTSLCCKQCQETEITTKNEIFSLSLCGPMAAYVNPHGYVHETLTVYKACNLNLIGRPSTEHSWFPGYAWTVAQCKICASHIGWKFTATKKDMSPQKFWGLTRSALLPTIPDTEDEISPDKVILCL
Chain of cereblon (CRBN/DDB1-CUL4A-Rbx1 complex) / BRD3 (Q16531 whole entry partner): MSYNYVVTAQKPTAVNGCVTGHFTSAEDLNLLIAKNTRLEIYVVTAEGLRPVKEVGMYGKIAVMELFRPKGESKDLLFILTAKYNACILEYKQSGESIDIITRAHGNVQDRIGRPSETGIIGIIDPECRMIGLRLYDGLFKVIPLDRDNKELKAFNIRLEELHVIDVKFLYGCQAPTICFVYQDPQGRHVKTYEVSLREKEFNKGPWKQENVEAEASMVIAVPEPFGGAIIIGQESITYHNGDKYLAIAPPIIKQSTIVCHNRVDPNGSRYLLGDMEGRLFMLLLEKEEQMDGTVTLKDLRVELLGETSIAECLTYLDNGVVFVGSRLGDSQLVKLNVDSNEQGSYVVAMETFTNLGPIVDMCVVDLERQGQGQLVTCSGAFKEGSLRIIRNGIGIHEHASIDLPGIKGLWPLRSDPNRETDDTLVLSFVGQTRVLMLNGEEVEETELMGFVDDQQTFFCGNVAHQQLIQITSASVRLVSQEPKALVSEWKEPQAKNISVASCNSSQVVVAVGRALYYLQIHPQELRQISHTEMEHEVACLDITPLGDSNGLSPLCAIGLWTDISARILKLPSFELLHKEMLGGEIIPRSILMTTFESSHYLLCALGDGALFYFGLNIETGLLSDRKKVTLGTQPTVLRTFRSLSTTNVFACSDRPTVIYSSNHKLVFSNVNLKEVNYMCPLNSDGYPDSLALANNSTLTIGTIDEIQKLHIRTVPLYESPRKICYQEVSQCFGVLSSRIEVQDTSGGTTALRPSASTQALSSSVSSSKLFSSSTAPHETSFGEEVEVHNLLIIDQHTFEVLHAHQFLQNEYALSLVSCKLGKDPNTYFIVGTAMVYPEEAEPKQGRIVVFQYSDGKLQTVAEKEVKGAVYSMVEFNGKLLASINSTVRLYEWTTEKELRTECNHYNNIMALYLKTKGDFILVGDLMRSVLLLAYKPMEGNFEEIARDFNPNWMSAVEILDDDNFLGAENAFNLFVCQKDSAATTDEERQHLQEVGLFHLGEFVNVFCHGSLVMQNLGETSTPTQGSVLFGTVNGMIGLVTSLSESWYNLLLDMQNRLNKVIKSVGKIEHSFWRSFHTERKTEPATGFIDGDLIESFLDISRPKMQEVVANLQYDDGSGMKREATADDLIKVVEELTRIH
Chain of cereblon (CRBN/DDB1-CUL4A-Rbx1 complex) / BRD3 (Q13619 whole entry partner): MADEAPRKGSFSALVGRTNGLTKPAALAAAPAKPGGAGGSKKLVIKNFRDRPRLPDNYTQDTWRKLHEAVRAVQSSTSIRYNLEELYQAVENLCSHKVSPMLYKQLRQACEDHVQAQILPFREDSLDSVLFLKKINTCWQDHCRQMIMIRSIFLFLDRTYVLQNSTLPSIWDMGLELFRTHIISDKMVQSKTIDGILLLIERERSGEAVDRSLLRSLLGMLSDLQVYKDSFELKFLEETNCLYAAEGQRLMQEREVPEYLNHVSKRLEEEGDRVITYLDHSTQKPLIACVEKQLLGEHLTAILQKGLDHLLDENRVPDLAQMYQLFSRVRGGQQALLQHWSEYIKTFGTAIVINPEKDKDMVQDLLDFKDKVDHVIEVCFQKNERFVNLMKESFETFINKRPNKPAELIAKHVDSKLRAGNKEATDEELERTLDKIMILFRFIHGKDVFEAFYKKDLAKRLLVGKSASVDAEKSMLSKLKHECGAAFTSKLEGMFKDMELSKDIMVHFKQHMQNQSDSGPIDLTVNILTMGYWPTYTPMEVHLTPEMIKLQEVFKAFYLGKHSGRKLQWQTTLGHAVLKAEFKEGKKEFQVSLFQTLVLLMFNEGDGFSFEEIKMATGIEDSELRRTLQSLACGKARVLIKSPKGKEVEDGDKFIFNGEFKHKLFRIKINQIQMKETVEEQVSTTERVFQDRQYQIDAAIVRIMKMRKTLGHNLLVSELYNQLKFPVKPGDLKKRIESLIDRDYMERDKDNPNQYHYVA
Chain of cereblon (CRBN/DDB1-CUL4A-Rbx1 complex) / BRD3 (P62877 whole entry partner): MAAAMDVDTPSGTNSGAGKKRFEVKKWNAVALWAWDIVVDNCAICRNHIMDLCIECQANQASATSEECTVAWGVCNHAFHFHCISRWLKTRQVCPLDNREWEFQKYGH
Procedure: After 30 min of incubation with shaking at room temperature, AlphaLISA anti-FLAG Acceptor and Alpha Glutathione Donor beads (PerkinElmer) were sequentially added and then incubated for 1 hr at room temperature for each of the added chemicals. Alpha counts were thereafter read on a Synergy Neo2 (BioTek) for the analysis. Relative activity or inhibition was calculated as the highest value, which was set to 100%, and the lowest value was set to 0% after subtraction of the “blank value” from all readings.
After 30 min of incubation with shaking at room temperature, AlphaLISA anti-FLAG Acceptor and Alpha Glutathione Donor beads (PerkinElmer) were sequentially added and then incubated for 1 h at room temperature for each of the added chemicals. Alpha counts were thereafter read on a Synergy Neo2 (BioTek) for the analysis. The relative activity of the alpha signal was calculated after subtraction of the “blank value” from all readings, and the value of the vehicle group was then set as 100%.

SALL4 = SALL4 (Homo sapiens (Human), UniProt Q9UJQ4); experiment: SALL4 expression in Tera-1 cells (Western blot); assay type: cell-based; conditions: human Tera-1 cells; 0.01, 0.1, 1 μM; relative to GAPDH
Procedure: (§2) For Western blot analysis, total proteins were extracted using RIPA buffer (ThermoFisher Scientific, Waltham, MA) containing Halt Protease Inhibitor Cocktail (ThermoFisher Scientific). […] After incubation at 4° C. overnight, the following HRP conjugated secondary antibodies were used: (i) goat anti-rabbit IgG (ThermoFisher Scientific) for ikaros and aiolos, and (ii) goat anti-mouse IgG (ThermoFisher Scientific) for SALL4 and GAPDH. […] Antigen-antibody complexes were detected using enhanced chemiluminescence (Thermo, iBright CL1500).
(§3) Specifically, MM1.S cells were obtained from ATCC (Manassas, VA, USA), grown in RPMI media supplemented with 10% FBS, penicillin 100 U/mL, and streptomycin […], and maintained at 37° C. and 5% CO2.
as §2, with “MA, USA)” for “MA)”, “Scientific). Thereafter, the proteins were separated by gel electrophoresis and then transferred to polyvinylidene difluoride (PVDF) membranes (ThermoFisher Scientific), as described previously.” for “Scientific).”, “HRP-conjugated” for “HRP conjugated”, “Ikaros” for “ikaros”, “Aiolos,” for “aiolos,”, “(ThermoFisher Scientific,” for “(Thermo,”

Aiolos = Aiolos (Homo sapiens (Human), UniProt Q9UKT9); experiment: Aiolos degradation in MM1.S cells (Western blot); assay type: cell-based; conditions: 1 μM, relative to GAPDH
Procedure: as §2, §3
(§4) For Western blot analysis, total proteins were extracted using RIPA buffer (ThermoFisher Scientific, Waltham, MA, USA) containing Halt Protease Inhibitor Cocktail (ThermoFisher Scientific). Thereafter, the proteins were separated by gel electrophoresis and then transferred to polyvinylidene difluoride (PVDF) membranes (ThermoFisher Scientific), as described previously. […] Antigen-antibody complexes were detected using enhanced chemiluminescence (ThermoFisher Scientific, iBright CL1500).

Ikaros = Ikaros (Homo sapiens (Human), UniProt Q13422); experiment: Ikaros degradation in MM1.S cells (Western blot); assay type: cell-based; conditions: 1 μM, relative to GAPDH
Procedure: as §2, §3, §4

CCI-induced TBI mice = experiment: CCI mouse model of TBI: DigiGait gait analysis; assay type: in vivo
Procedure: In vivo model of TBI: Mice were anesthetized with 2.5% tribromoethanol (Avertin: 250 mg/kg; Sigma, St. Louis, MO, USA) and placed in a stereotaxic frame (Kopf Instruments, Tujunga, CA, USA). A 4 mm craniotomy was performed using sterile procedures; the craniotomy point was selected midway between the lambda and bregma sutures and laterally midway between the central suture and the temporalis muscle. The skull fragment was then carefully removed without disruption of the underlying dura. Prior to injury induction, the tip of the impactor was angled and kept perpendicular to the exposed cortical surface. The mouse CCI instrument consisted of an electromagnetic impactor, Impact One (Leica Biosystems Inc., Buffalo Grove, IL, USA) that allows independent alteration of injury severity by controlling contact velocity and the level of cortical deformation. In these experiments, the contact velocity was set at 5.0 m/sec, the dwell time was set at 0.2 s and the deformation depth was set at 2 mm to produce a moderate TBI. The injury site was allowed to dry prior to suturing the wound. During surgery and recovery, the body temperature of the animals was maintained at 36-37° C. by using a heating pad. […] Mice were randomized following CCI to treatment with either of two doses of TFBP (16.25 mg/kg and 32.5 mg/kg, i.p.) or saline, and were dosed at 1 and 24 hr after the injury.
Behavioral assessment for motor functions and coordination: Behavioral tests were performed 1 week and 2 weeks after injury, to assess changes in motor functions and coordination. All tests were performed during the animals' light phase; cages were transported to testing rooms at least 30 min prior to testing.
Gait analysis: For the gait analysis, mice were tested on a fixed-speed treadmill apparatus (DigiGait; Mouse Specifics). Mice were habituated to the apparatus for 1 min, and then given a 1-min run at 5 cm/s. Following a 1-min rest, the treadmill speed was increased to 15 cm/s. Video was collected at high speed from a ventrally placed camera, and 3-5 s of representative gait video was selected by an experienced but blinded user for automated analysis.
In Vivo Model of TBI: TBI studies were conducted in 8-week-old male C57/BL6 mice (25-30 g; n=20), Jackson Laboratory, Bar Harbor, Maine USA. Mice were randomly assigned to four groups prior surgery, CMC+Sham, CMC+TBI, compound 30 (Low dose (LD), 14.78 mg/kg, prepared in 1% CMC in PBS)+TBI, compound 30 (High dose (HD), 29.57 mg/kg)+TBI, and evaluated the effects of compound 30 on TBI. Mice were assessed for gait function and motor coordination, balance function. Animals were subsequently evaluated for cellular changes using histological and immunohistochemistry staining. […]

C[C@@H]1[C@@H](N2C(=O)c3c(F)ccc(F)c3C2=O)C[C@H]2C[C@@H]1C2(C)C [Compound 18, 4,7-Difluoro-2-((1S,2S,3S,5R)-2,6,6-trimethylbicyclo[3.1.1]heptan-3-yl) isoindoline-1,3-dione]
SARS-CoV-2 inhibitory activity (SARS-CoV-2): potent SARS-CoV-2 inhibitory activity
nitrite level, % of vehicle control ([1]; 1 μM): 96 ± 4%
nitrite level, % of vehicle control ([1]; 10 μM): 71 ± 4%
cytotoxicity [2]: preliminarily acceptable cytotoxicity
Cell Viability % Δ (RAW 264.7 cells; 1 μM): 102 ± 4%
Cell Viability % Δ (RAW 264.7 cells; 10 μM): 76 ± 5%
TNF-α % Δ (TNF-α; 1 μM): 101 ± 5%
TNF-α % Δ (TNF-α; 10 μM): 89 ± 5%

4-amino-7-fluoro-2-(2-oxo-6-thioxopiperidin-3-yl)-3-thioxoisoindolin-1-one [Compound 30]
IC50 ([3]; Example 6, FIG. 28A): 2660 nM
cereblon binding (in words) ([3]; cereblon/BRD3 binding FRET assay): potently bind to cereblon
SALL4 levels (SALL4): no significant effect
Aiolos levels (Aiolos): no significant effect
Ikaros levels (Ikaros): no significant effect
gait % of brake phase (CCI-induced TBI mice; high dose 29.57 mg/kg): impairment of brake phase was ameliorated
gait propel time and % of propel phase (CCI-induced TBI mice; high dose 29.57 mg/kg): significantly mitigate propel time and % of propel phase
gait brake time (CCI-induced TBI mice; low dose 14.78 mg/kg, 1 and 2 weeks after TBI): significantly mitigated the deficit of brake time

Reference: US20260055061A1, “HALOPHTHALIMIDE COMPOUNDS AND METHODS OF USE AGAINST TBI, INFLAMMATORY DISORDER, AUTOIMMUNE DISORDER, NEURODEGENERATIVE DISEASE OR VIRAL INFECTION” (The United States of America, as represented by the …, priority 2022, published 2026)
